We go through seven compounds from patent US6790971B1, “19-Nor-steroids” (Aventis Pharma S.A., priority 1989, dated 2004).

Assay [1] addresses T1, Estrogenic Receptor of Mouse Uterus (Mus musculus, UniProt P19785).
T1 construct: their uteri were removed, then homogenized at 0° C; from tissue; host or cells: uterine cytosol (105,000 g supernatant) of immature female mice
T1 sequence (P19785 1-599): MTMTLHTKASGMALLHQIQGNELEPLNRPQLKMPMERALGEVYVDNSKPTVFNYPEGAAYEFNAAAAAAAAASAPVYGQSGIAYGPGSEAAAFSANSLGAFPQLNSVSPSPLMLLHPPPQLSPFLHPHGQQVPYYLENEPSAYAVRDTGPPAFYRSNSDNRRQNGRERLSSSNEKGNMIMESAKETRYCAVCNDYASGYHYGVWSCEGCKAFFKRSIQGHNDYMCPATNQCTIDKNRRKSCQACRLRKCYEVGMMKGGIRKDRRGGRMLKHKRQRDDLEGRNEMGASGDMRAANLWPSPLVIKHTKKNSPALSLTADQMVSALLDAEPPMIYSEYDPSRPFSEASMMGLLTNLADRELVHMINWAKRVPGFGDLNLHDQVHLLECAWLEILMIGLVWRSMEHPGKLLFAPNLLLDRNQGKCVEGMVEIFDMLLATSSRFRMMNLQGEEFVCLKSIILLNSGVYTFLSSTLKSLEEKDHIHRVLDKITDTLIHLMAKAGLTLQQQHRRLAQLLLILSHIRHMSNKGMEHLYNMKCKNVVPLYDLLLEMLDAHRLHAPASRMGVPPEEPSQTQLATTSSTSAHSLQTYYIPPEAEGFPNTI
In words: Relative affinity of the bond, estrogen receptor (tritiated estradiol displacement). Format: binding. The following applies: for affinity for the estrogen receptors: at the second time (incubation); for Relative affinity of the bond (RAB), Oestrogen, 2 H: incubation 2 H at 0° C.; for Relative affinity of the bond (RAB), Oestrogen, 2 H / Relative affinity of the bond (RAB), Oestrogen, 6 H: RAB=100(CH)/(CX); for Relative affinity of the bond (RAB), Oestrogen, 6 H: incubation 6 H (second time). The protocol:
Estrogenic Receptor of Mouse Uterus:
Impuberal female mice aged from 18 to 21 days were killed and their uteri were removed, then homogenized at 0° C. with the aid of a Potter teflon-glass in a TS buffered solution (10 mM Tris, 0.25 M saccharose, HCL pH 7.4) (1 g of tissue for 25 ml of TS). The homogenate was ultracentrifuged (105,000 g×90 min) at 0° C. and aliquots of the supernatant were incubated at 0° C. or at 25° C. for a time (t) with a constant concentration (T) of tritiated estradiol in the presence of increasing concentrations (0-1000×10^−9 M) either of cold estradiol, or of the cold product to be tested. The concentration (B) of bound tritiated estradiol was measured in each incubate by the technique of adsorption on dextran carbon.
(§1) Calculation of the Relative Affinty of the Bond
(§2) The calculation of the Relative Affinity of the Bond (RAB) was identical for all the receptors. The following 2 curves were traced; the percentage of the bound tritiated hormone [formula]
(§3) was a function of the logarithm of the concentration of the cold reference hormone and [formula]
(§4) as a function of the logarithm of the concentration of the cold product tested.
(§5) One determined the straight line of the equation [formula]
(§6) The intersections of the straight line I50 and of the curves make it possible to evaluate the concentrations of the cold reference hormone (CH) and of the tested cold product (CX) which inhibit to an extend of 50% the binding of the tritiated hormone upon the receptor. The relative affinity of the bond (RAB) of the tested product is determined by the equation

Assay [2] addresses T2, Mineralocorticoid Receptor of the Rats' Kidney (Rattus norvegicus, UniProt P22199).
T2 construct: The kidneys were then removed, decapsulated and homogenized at 0° C; from tissue; host or cells: kidney cytosol (105,000 g supernatant) of adrenalectomised male Sprague-Dawley rats
T2 sequence (P22199 1-981): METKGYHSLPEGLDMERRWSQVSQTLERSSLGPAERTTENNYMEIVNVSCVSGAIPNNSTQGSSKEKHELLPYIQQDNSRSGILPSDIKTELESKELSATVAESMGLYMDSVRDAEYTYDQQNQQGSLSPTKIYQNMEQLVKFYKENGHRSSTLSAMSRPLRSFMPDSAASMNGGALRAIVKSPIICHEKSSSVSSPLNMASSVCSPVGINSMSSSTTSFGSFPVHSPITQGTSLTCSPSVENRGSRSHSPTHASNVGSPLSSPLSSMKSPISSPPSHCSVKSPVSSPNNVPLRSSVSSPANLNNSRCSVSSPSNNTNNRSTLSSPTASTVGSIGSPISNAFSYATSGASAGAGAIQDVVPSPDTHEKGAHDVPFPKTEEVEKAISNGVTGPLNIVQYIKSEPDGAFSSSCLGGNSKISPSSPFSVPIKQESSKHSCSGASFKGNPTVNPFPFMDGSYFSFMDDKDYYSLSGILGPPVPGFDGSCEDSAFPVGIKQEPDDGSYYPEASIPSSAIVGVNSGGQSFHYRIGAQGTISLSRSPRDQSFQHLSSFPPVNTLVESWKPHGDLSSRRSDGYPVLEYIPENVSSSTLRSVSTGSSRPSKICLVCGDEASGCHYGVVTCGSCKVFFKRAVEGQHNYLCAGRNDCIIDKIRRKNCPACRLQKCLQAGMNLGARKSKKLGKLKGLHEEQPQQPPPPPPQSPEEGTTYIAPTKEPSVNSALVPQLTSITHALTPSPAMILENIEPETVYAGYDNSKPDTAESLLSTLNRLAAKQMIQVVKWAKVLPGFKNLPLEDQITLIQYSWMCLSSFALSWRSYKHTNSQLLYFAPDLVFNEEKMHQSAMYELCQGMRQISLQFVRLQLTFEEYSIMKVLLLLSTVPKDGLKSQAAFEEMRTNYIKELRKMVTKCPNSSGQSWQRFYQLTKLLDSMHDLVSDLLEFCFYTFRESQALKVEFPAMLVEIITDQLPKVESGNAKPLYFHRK
Nature of the assay: Relative affinity of the bond, mineralocorticoid receptor (tritiated aldosterone displacement). It is filed as binding. The following applies: RAB=100(CH)/(CX); for Relative affinity of the bond (RAB), Mineralocorticoid, 1 H: incubation 1 H at 0° C.; for Relative affinity of the bond (RAB), Mineralocorticoid, 24 H: incubation 24 H at 0° C. How it is done: Mineralocorticoid Receptor of the Rats' Kidney:
Male Sprague-Dawley EOPS rats weighing 140 to 160 g were subjected to supraenalectomy 4 to 8 days earlier and were sacrificed and their kidneys were perfused in situ with 50 ml of a 10 mM Tris, 0.25 M saccharose, HCl buffer pH 7.4. The kidneys were then removed, decapsulated and homogenized at 0° C. with the aid of a Potter teflon-glass (1 g of tissue for 3 ml of buffer). The homogenate was centrifuged for 10 minutes at […] and 0° C. and then to eliminate the fixation of the tritiated aldosterone upon the glucocorticoid receptor, 11β-,17β-dihydroxy-21-methyl-Δ^1,4,6-pregnatrien-20-yn-3-one which was fixed uniquely upon the glucocorticoid receptor was added to the supernatant at a final concentration of 10^−6 M. This supernatant was ultracentrifuged at 105,000 g for 60 minutes at 0° C. and aliquots of the supernatant thus obtained were incubated at 0° C. with a constant concentration (T) of tritiated aldosterone in the presence of increasing concentrations ([…]) of the cold aldosterone or the cold product to be studied. After an incubation time (t), the concentration of bound tritiated aldosterone (B) was measured by the adsorption on dextran carbon technique.
as §1, §2, §3, §4, §5, §6

Turning to `CCCCN(C)C(=O)CCCCCCCCCC[C@H]1C[C@]2(C)[C@@H](O)CC[C@H]2[C@@H]2CCc3cc(O)ccc3[C@@H]12` [Example 13, N-Butyl-3,17β-Dihydroxy-N-Methyl-11β-Δ^1,3,5(10)-Estratriene-Undecanamide], in assay [1], the “affinity for the estrogen receptors” value is on record as “marked affinity”; the “Relative affinity of the bond (RAB), Oestrogen, 2 H” value (shortened to “Relative affinity of the bond … 2 H”) is 0.13; the “Relative affinity of the bond (RAB), Oestrogen, 6 H” value (from here on “Relative affinity of the bond … 6 H”) is reported as 27. Besides, in assay [2], the “Relative affinity of the bond (RAB), Mineralocorticoid, 1 H” value (“Relative affinity of the bond (RAB) … 1 H” for short) worked out at 0.19 and the “Relative affinity of the bond (RAB), Mineralocorticoid, 24 H” value (“Relative affinity of the bond (RAB) … 24 H” for short) is on record as 0.00.
As to `CC(C)N(C)C(=O)CCCCCCCCCC[C@H]1C[C@]2(C)[C@@H](O)CC[C@H]2[C@@H]2CCc3cc(O)ccc3[C@@H]12` [Example 16, 3,17β-dihydroxy-N-methyl-N-isopropyl-11β-Δ^1,3,5(10)-estratriene undecanamide], in assay [1], the “affinity for the estrogen receptors” value is on record as “marked affinity”; the “Relative affinity of the bond … 2 H” value is given as 0.6; the “Relative affinity of the bond … 6 H” value came to 60. For the same compound, in assay [2], the “Relative affinity of the bond (RAB) … 1 H” value is given as 0 and the “Relative affinity of the bond (RAB) … 24 H” value amounted to 0.
Turning to `CN(Cc1ccccc1)C(=O)CCCCCCCCCC[C@H]1C[C@]2(C)[C@@H](O)CC[C@H]2[C@@H]2CCC3=CC(=O)CCC3=C12` [Example 17, N-benzyl-17β-hydroxy-N-methyl-3-oxo-11β-Δ^4,9-estradiene undecanamide], in assay [1], the “Relative affinity of the bond … 2 H” value came out at 0.1 and the “Relative affinity of the bond … 6 H” value came to 0.01. Besides, in assay [2], the “Relative affinity of the bond (RAB) … 1 H” value came to 2 and the “Relative affinity of the bond (RAB) … 24 H” value is 0.5.
For `CN(C)CCN(C)C(=O)CCCCCCCCCC[C@H]1C[C@]2(C)[C@@H](O)CC[C@H]2[C@@H]2CCC3=CC(=O)CCC3=C12` [Example 19, N-[2-(dimethylamino)-ethyl]-17β-hydroxy-N-methyl-3-oxo-11β-Δ^4,9-estradiene undecanamide], in assay [1], the “Relative affinity of the bond … 2 H” value is given as 0.3 and the “Relative affinity of the bond … 6 H” value is listed as 0.8. In assay [2], the “Relative affinity of the bond (RAB) … 1 H” value was found to be 0.7 and the “Relative affinity of the bond (RAB) … 24 H” value turned out to be 0.1.
In the same order, the values of `CC#C[C@]1(O)CC[C@H]2[C@@H]3CCC4=CC(=O)CCC4=C3[C@@H](CCCCCCCCCCC(=O)NCCCC)C[C@@]21C` [Example 22, N-butyl-17β-hydroxy-3-oxo-17α-(1-propynyl)-11β-Δ^4,9-estradiene undecanamide] are 0.01, 0.01, 0 and 0.
In the case of `CCCCN(C)C(=O)CCCCCCCCCCC[C@H]1C[C@]2(C)[C@@H](O)CC[C@H]2[C@@H]2CCc3cc(O)ccc3[C@@H]12` [Example 24, N-butyl-3,17β-dihydroxy-N-methyl-11β-Δ^1,3,5(10)-estratriene dodecanamide], in assay [1], the “Relative affinity of the bond … 2 H” value was found to be 0.02 and the “Relative affinity of the bond … 6 H” value is 13. In assay [2], the “Relative affinity of the bond (RAB) … 1 H” value worked out at 0 and the “Relative affinity of the bond (RAB) … 24 H” value came to 0.
As to “N-butyl-3,17β-dihydroxy-N-methyl-19-nor-11β-Δ^1,3,5(10)-pregnatrien-20-yn undecanamide [Example 21]”, in assay [1], the “Relative affinity of the bond … 2 H” value turned out to be 0.06 and the “Relative affinity of the bond … 6 H” value is given as 7.4. In addition, in assay [2], the “Relative affinity of the bond (RAB) … 1 H” value came to 0.4 and the “Relative affinity of the bond (RAB) … 24 H” value is given as 0.5.
